For this assay, the target named is T1, AR protein in VCaP cells (Homo sapiens, UniProt P10275).
T1 construct: endogenous in cells; host or cells: VCaP cells
T1 sequence (P10275 1-920): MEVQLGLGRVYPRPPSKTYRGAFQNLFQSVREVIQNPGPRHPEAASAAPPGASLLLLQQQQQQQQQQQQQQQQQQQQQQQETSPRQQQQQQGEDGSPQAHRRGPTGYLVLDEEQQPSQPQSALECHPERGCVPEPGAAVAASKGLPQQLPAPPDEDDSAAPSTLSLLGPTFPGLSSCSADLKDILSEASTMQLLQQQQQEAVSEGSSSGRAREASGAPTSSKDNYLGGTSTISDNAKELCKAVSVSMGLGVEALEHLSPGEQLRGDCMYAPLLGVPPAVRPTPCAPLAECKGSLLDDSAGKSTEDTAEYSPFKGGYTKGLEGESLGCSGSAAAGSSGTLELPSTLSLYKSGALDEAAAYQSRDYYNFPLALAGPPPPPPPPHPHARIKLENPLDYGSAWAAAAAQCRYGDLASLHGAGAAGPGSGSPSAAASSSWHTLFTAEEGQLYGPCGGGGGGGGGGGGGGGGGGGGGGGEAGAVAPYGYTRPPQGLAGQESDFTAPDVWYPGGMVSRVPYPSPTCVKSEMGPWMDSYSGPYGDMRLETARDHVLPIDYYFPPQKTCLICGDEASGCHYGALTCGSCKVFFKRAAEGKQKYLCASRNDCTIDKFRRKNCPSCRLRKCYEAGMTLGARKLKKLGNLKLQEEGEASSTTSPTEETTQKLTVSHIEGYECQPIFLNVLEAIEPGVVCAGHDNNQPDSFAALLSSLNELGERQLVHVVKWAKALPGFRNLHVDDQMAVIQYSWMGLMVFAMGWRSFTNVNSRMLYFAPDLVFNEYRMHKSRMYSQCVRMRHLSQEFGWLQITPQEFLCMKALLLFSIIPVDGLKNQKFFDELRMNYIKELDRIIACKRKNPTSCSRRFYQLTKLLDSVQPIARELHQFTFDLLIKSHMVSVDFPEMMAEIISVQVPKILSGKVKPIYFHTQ
The assay can be described thus: VCAP AR Degradation Assay. Type of assay: cell-based. The note with it: 24 h, AR ELISA; for DC50: concentration at 50% of DMSO control (50% AR degradation); for Y: lowest measured AR level normalized to DMSO control. Here is the method: VCAP AR Degradation Assay. Test compounds were pre-dispensed into a Corning CellBind 96-well clear bottom plate (Cat #3300) using an acoustic dispenser to make a 10-point concentration series at 1:3 dilution for each compound. The final top concentration of each compound was 5 μM. DMSO at a final concentration of 0.1% was used as a control. VCaP cells cultured in DMEM with 8% fetal bovine serum (FBS) were seeded at 50K cells per well in a 200 μL volume into the compound plate and incubated at 37° C. in a CO2 incubator for 24 h. The medium was carefully removed from the cells and the plate was placed on ice. One hundred μL of ice-cold 1× cell lysis buffer from Cell Signaling Technologies (Cat #9803) was added to each well of the cells and the plate was incubated at 4° C. on a shaker for 1 h. Fifteen μL of cell lysate was used for AR ELISA detection using a PathScan Total Sandwich AR ELISA kit (Cell Signaling Technology, Cat #12580). AR levels in compound-treated wells were normalized to that of DMSO control and expressed as percent of control (PoC) (y). A Four Parameter Logistic Model (Sigmoidal Dose-Response Model) was used to determine the compound's DC50, and EC50, using the following equation: y=(A+((B−A)/(1+((C/x)^D)))) • A=YMin (lowest AR level normalized to DMSO control in response to compound treatment, as determined by curve fit) • B=YMax (maximum AR level as determined by curve fit) • C=EC50 • D=Hill Slope • x=compound concentration • EC50=the concentration of compound when y=(YMax−YMin)/2 • DC50=the concentration of the compound when y=50% of DMSO control (50% AR degradation) • y=AR protein level normalized to DMSO control
The lowest measured AR level normalized to DMSO control in response to compound treatment, termed Y value, was used to characterize the compound-mediated AR degradation efficiency.

This is an account of results in patent US12103920B2, “Cereblon binding compounds, compositions thereof, and methods of treatment therewith” (Celgene Corporation, priority 2020, dated 2024).

Structures can show the parent of a compound that is named as a salt.

`CC1(C)C(=O)N(c2cnc(C#N)c(C(F)(F)F)c2)C(=S)N1[C@H]1CC[C@H](OCCN2CCN(CC(=O)Nc3cc(C#N)cc(NC4CCC(=O)NC4=O)c3)[C@@H](C(F)(F)F)C2)CC1` (stereo partly drawn) [Cmpd 31, N-(3-Cyano-5-((2,6-dioxopiperidin-3-yl)amino)phenyl)-2-((R)-4-(2-(((trans)-4-(3-(6-cyano-5-(trifluoromethyl)pyridin-3-yl)-5,5-dimethyl-4-oxo-2-thioxoimidazolidin-1-yl)cyclohexyl)oxy)ethyl)-2-(trifluoromethyl)piperazin-1-yl)acetamide]: the half-maximal degradation concentration (DC50) is at most 5 nM and the Y result was “* (0<Y≤15%)”.

Turning to `C[C@@H]1CN(CCO[C@H]2CC[C@H](N3C(=S)N(c4ccc(C#N)c(C(F)(F)F)c4)C(=O)C3(C)C)CC2)C[C@H](C)N1CC(=O)Nc1cccc(N[C@@H]2CCC(=O)NC2=O)c1` [Cmpd 3, 2-((2R,6S)-4-(2-((trans-4-(3-(4-Cyano-3-(trifluoromethyl)phenyl)-5,5-dimethyl-4-oxo-2-thioxoimidazolidin-1-yl)cyclohexyl)oxy)ethyl)-2,6-dimethylpiperazin-1-yl)-N-(3-(((R)-2,6-dioxopiperidin-3-yl)amino)phenyl)acetamide hydrochloride], the DC50 was in the range of 5 to 10 nM and the Y entry is “*** (25%<Y<50%)”.

As for `C[C@@H]1C[C@H](OCCC[C@H]2CC[C@H](N3C(=S)N(c4cnc(C#N)c(C(F)(F)F)c4)C(=O)C3(C)C)CC2)C[C@H](C)N1CC(=O)Nc1cccc(NC2CCC(=O)NC2=O)c1` (stereo partly drawn) [Cmpd 33, 2-((2R,4r,6S)-4-(3-((trans)-4-(3-(6-Cyano-5-(trifluoromethyl)pyridin-3-yl)-5,5-dimethyl-4-oxo-2-thioxoimidazolidin-1-yl)cyclohexyl)propoxy)-2,6-dimethylpiperidin-1-yl)-N-(3-((2,6-dioxopiperidin-3-yl)amino)phenyl)acetamide hydrochloride], the DC50 lay within 5 to 10 nM and the Y entry is recorded as “** (15%<Y≤20%)”.

`C[C@@H]1CN(CCC[C@H]2CC[C@H](N3C(=S)N(c4ccc(C#N)c(C(F)(F)F)c4)C(=O)C3(C)C)CC2)C[C@H](C)N1CC(=O)Nc1cc(NC2CCC(=O)NC2=O)ccc1F` (stereo partly drawn) [Cmpd 39, 2-((2R,6S)-4-(3-((trans)-4-(3-(4-Cyano-3-(trifluoromethyl)phenyl)-5,5-dimethyl-4-oxo-2-thioxoimidazolidin-1-yl)cyclohexyl)propyl)-2,6-dimethylpiperazin-1-yl)-N-(5-((2,6-dioxopiperidin-3-yl)amino)-2-fluorophenyl)acetamide]: the DC50 is 10 to 100 nM and the Y entry is reported as “*** (25%<Y<50%)”.

In the case of `CC1(C)C(=O)N(c2ccc(C#N)c(C(F)(F)F)c2)C(=S)N1[C@H]1CC[C@H](OCCCN2CCN(CC(=O)Nc3cccc(NC4CCC(=O)NC4=O)c3)[C@@H](C(F)(F)F)C2)CC1` (stereo partly drawn) [Cmpd 30, 2-((R)-4-(3-(((trans)-4-(3-(4-Cyano-3-(trifluoromethyl)phenyl)-5,5-dimethyl-4-oxo-2-thioxoimidazolidin-1-yl)cyclohexyl)oxy)propyl)-2-(trifluoromethyl)piperazin-1-yl)-N-(3-((2,6-dioxopiperidin-3-yl)amino)phenyl)acetamide], the DC50 was in the range of 5 to 10 nM and the Y result was “* (0<Y≤15%)”.

As to `C[C@@H]1CN(CCCO[C@H]2CC[C@H](N3C(=S)N(c4ccc(C#N)c(C(F)(F)F)c4)C(=O)C3(C)C)CC2)C[C@H](C)N1CC(=O)Nc1cccc(NC2CCC(=O)NC2=O)c1` (stereo partly drawn) [Cmpd 12, 2-((2R,6S)-4-(3-((trans-4-(3-(4-Cyano-3-(trifluoromethyl)phenyl)-5,5-dimethyl-4-oxo-2-thioxoimidazolidin-1-yl)cyclohexyl)oxy)propyl)-2,6-dimethylpiperazin-1-yl)-N-(3-((2,6-dioxopiperidin-3-yl)amino)phenyl)acetamide hydrochloride], the DC50 fell in the range of 5 to 10 nM and the Y entry is “*** (25%<Y<50%)”.

Regarding `C[C@@H]1CN(CCCC[C@H]2CC[C@H](N3C(=S)N(c4ccc(C#N)c(C(F)(F)F)c4)C(=O)C3(C)C)CC2)C[C@H](C)N1CC(=O)Nc1cccc(NC2CCC(=O)NC2=O)c1` (stereo partly drawn) [Cmpd 17, 2-((2R,6S)-4-(4-(trans-4-(3-(4-Cyano-3-(trifluoromethyl)phenyl)-5,5-dimethyl-4-oxo-2-thioxoimidazolidin-1-yl)cyclohexyl)butyl)-2,6-dimethylpiperazin-1-yl)-N-(3-((2,6-dioxopiperidin-3-yl)amino)phenyl)acetamide hydrochloride], the DC50 was in the range of 10 to 100 nM and the Y entry was “*** (25%<Y<50%)”.

Regarding `CC1(C)C(=O)N(c2ccc(C#N)c(C(F)(F)F)c2)C(=S)N1[C@H]1CC[C@H](OCCN2CCN(CC(=O)Nc3cccc(NC4CCC(=O)NC4=O)c3)[C@H](C(F)(F)F)C2)CC1` (stereo partly drawn) [Cmpd 40, 2-((S)-4-(2-(((trans)-4-(3-(4-Cyano-3-(trifluoromethyl)phenyl)-5,5-dimethyl-4-oxo-2-thioxoimidazolidin-1-yl)cyclohexyl)oxy)ethyl)-2-(trifluoromethyl)piperazin-1-yl)-N-(3-((2,6-dioxopiperidin-3-yl)amino)phenyl)acetamide], the DC50 was in the range of 10 to 100 nM and the Y entry is on record as “*** (25%<Y<50%)”.

For the compound `C[C@@H]1C[C@@H](CCO[C@H]2CC[C@H](N3C(=S)N(c4ccc(C#N)c(C(F)(F)F)c4)C(=O)C3(C)C)CC2)C[C@H](C)N1CC(=O)Nc1cccc(NC2CCC(=O)NC2=O)c1` (stereo partly drawn) [Cmpd 15, 2-((2R,4s,6S)-4-(2-((trans-4-(3-(4-Cyano-3-(trifluoromethyl)phenyl)-5,5-dimethyl-4-oxo-2-thioxoimidazolidin-1-yl)cyclohexyl)oxy)ethyl)-2,6-dimethylpiperidin-1-yl)-N-(3-((2,6-dioxopiperidin-3-yl)amino)phenyl)acetamide hydrochloride], the DC50 is 5 to 10 nM and the Y result was “* (0<Y≤15%)”.

`C[C@@H]1CN(CCCO[C@H]2CC[C@H](N3C(=S)N(c4cnc(C#N)c(C(F)(F)F)c4)C(=O)C3(C)C)CC2)C[C@H](C)N1CC(=O)Nc1cccc(NC2CCC(=O)NC2=O)c1` (stereo partly drawn) [Cmpd 10, 2-((2R,6S)-4-(3-((trans-4-(3-(6-Cyano-5-(trifluoromethyl)pyridin-3-yl)-5,5-dimethyl-4-oxo-2-thioxoimidazolidin-1-yl)cyclohexyl)oxy)propyl)-2,6-dimethylpiperazin-1-yl)-N-(3-((2,6-dioxopiperidin-3-yl)amino)phenyl)acetamide hydrochloride]: the DC50 was at most 5 nM and the Y entry is reported as “** (15%<Y≤20%)”.

As to `CC1(C)C(=O)N(c2ccc(C#N)c(C(F)(F)F)c2)C(=S)N1[C@H]1CC[C@H](OCCC2CCN(CC(=O)Nc3cccc(NC4CCC(=O)NC4=O)c3)CC2(F)F)CC1` (stereo partly drawn) [Cmpd 44, 2-(4-(2-(((trans)-4-(3-(4-Cyano-3-(trifluoromethyl)phenyl)-5,5-dimethyl-4-oxo-2-thioxoimidazolidin-1-yl)cyclohexyl)oxy)ethyl)-3,3-difluoropiperidin-1-yl)-N-(3-((2,6-dioxopiperidin-3-yl)amino)phenyl)acetamide], the DC50 was 5 to 10 nM and the Y entry is given as “* (0<Y≤15%)”.

One may read the DC50 as the concentration at which degradation of the target reaches its halfway point.
